Measurements reported in patent US20100137377A1, “NOVEL COMPOUNDS” (SOREN EBDRUP ET AL, priority 2007, published 2010).
Values joined by “and” are separate entries in the source; they are usually repeats but may differ in a detail not shown here. Identical values can stand only once.

Biological target: T1, h-11βHSD1 (Homo sapiens, UniProt P28845)
T1 construct: made in house
Assay: 11βHSD1 enzyme assay (SPA, 3H-cortisone to 3H-cortisol)
Type: biochemical
Conditions: extract of yeast transformed with h-11βHSD1; 120 nM 3H-cortisone, 4 mM β-NADPH, 60 min at 30° C.; several determinations per cell separated by ';'
Experimental: ^3H-cortisone and anti-rabbit Ig coated scintillation proximity assay (SPA) beads were purchased from Amersham Pharmacia Biotech, β-NADPH was from Sigma and rabbit anti-cortisol antibodies were from Fitzgerald. An extract of yeast transformed with h-11βHSD1 (Hutt et al., FEBS Lett., 441, 25 (1998)) was used as the source of enzyme. The test compounds were dissolved in DMSO (10 mM). All dilutions were performed in a buffer containing 50 mM TRIS-HCl (Sigma Chemical Co), 4 mM EDTA (Sigma Chemical Co), 0.1% BSA (Sigma Chemical Co), 0.01% Tween-20 (Sigma Chemical Co) and 0.005% bacitracin (Novo Nordisk A/S), pH=7.4. Optiplate 96 wells plates were supplied by Packard. The amount of ^3H-cortisol bound to the SPA beads was measured on TopCount NXT, Packard.
h-11βHSD1, 120 nM ^3H-cortisone, 4 mM β-NADPH, antibody (1:200), serial dilutions of test compound and SPA particles (2 mg/well) were added to the wells. The reaction was initiated by mixing the different components and was allowed to proceed under shaking for 60 min at 30° C. The reaction was stopped be the addition of 10 fold excess of a stopping buffer containing 500 μM carbenoxolone and 1 μM cortisone. Data was analysed using GraphPad Prism software.

T1 sequence (P28845 whole entry): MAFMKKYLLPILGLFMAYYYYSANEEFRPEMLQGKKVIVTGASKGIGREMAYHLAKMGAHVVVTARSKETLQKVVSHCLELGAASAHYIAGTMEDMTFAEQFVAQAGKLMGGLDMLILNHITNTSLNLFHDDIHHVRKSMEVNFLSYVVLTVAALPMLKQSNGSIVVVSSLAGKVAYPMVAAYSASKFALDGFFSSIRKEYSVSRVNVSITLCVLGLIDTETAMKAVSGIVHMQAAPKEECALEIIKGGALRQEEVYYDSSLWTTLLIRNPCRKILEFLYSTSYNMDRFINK

Structure (SMILES)	IC50
O=C(NC1C2CC3CC1CC(O)(C3)C2)c1ccc(Oc2ccc(Cl)cc2Cl)cc1 (centres unmarked) [Compound 1, 4-(2,4-Dichloro-phenoxy)-N-(5-hydroxy-adamantan-2-yl)-benzamide]	73 nM and 81 nM
N#Cc1ccc(Oc2ccc(C(=O)NC3C4CC5CC3CC(O)(C5)C4)cc2)nc1 (centres unmarked) [Compound 2, 4-(5-Cyano-pyridin-2-yloxy)-N-(5-hydroxy-adamantan-2-yl)-benzamide]	259 nM and 305 nM
O=C(NC1C2CC3CC1CC(O)(C3)C2)c1ccc(Oc2ccc(Cl)cn2)cc1 (centres unmarked) [Compound 3, 4-(5-Chloro-pyridin-2-yloxy)-N-(5-hydroxy-adamantan-2-yl)-benzamide]	56 nM and 89 nM
O=C(NC1C2CC3CC1CC(CO)(C3)C2)c1ccc(Oc2ccc(Cl)cn2)cc1 (centres unmarked) [Compound 4, 4-(5-Chloro-pyridin-2-yloxy)-N-(5-hydroxymethyl-adamantan-2-yl)-benzamide]	51 nM (2×) and 56 nM
CN(C(=O)c1ccc(Oc2ccc(Cl)cn2)cc1)C1CCC(CO)CC1 (centres unmarked) [Compound 5, 4-(5-Chloro-pyridin-2-yloxy)-N-(4-hydroxymethyl-cyclohexyl)-N-methyl-benzamide]	17 nM and 27 nM
